Where a name gives a salt, the structure may show the parent alone. Read-outs that look alike come from different tables or passages of the source.

A short description of data set [1]: pharmacological results, blood pressure lowering activity compared with other derivatives. The format is in vivo. Conditions: in comparison with the other derivatives, in words. The source says: The pharmacological results are even more marked in the case of the […] which were obtained according to the usual methods of racemate separation.
Data set [2] is described as follows: stress test, 2 weeks, heat or light (stability). The format is physicochemical. Here is the method: The hydrochloride is unstable even at ambient temperature and a stress test gave, after heating for 2 weeks at 45° C. in the dark, 10% of decomposition products and at ambient temperature in the light 30% of the compound had decomposed after 2 weeks.
In addition, it is also stable under the above-mentioned stress conditions (2 weeks at 45° C. in the dark and 2 weeks at ambient temperature in the light).

Data set [3] is described as follows: Solubility in water and artificial gastric juice (Table 1). It is filed as physicochemical.
For data set [4], the system named is Spontaneously Hypertensive Rats. The experiment in a line: blood pressure lowering after oral administration, Spontaneously Hypertensive Rats (Table 2). The format is in vivo. The source says: |Spontaneously Hypertensive Rats
Data set [5] can be described thus: animal experiments, commencement of activity. The format is in vivo. Particulars: in words.
Setting [6] is: Spontaneously Hypertensive Rats, 1 mg/kg PO, n = 6, 1 mg/kg.

Take `CC1=C(C(=O)OCCN(C)Cc2ccccc2)C(c2ccccc2C(F)(F)F)c2c(ccnc2OC(C)C)N1` (racemic) [(±), (±)-1,4-dihydro-5-isopropoxy-2-methyl-4-(2-trifluoromethylphenyl)-1,6-naphthyridine-3-carboxylic acid [2-(N-methyl-N-phenyl-methylamino)-ethyl] ester fumarate]: the “blood pressure lowering activity” value in data set [1] is on record as “especially marked blood pressure lowering activity”.
Consider `CC1=C(C(=O)OCCN(C)Cc2ccccc2)C(c2ccccc2C(F)(F)F)c2c(ccnc2OC(C)C)N1` (single isomer, unassigned) [Hydrochloride, reference compound], for which the degraded at 336 h in data set [2] (after heating for 2 weeks at 45° C. in the dark, read-out: decomposition products) was 10%; in data set [2] (ambient temperature in the light, after 2 weeks, read-out: decomposed compound) it was 30%. The stability result in data set [2] (ambient temperature, in words) is “unstable”. Further, the “Solubility in Artificial Gastric Juice” value in data set [3] is 20%. Moreover, the “solubility in water” value in data set [3] (in words) is recorded as “good solubility”; in data set [3] (water), 20%. For the same compound, the “blood pressure lowering action” value in data set [4] (setting [6]) is listed as 17% ± 4.4. Besides, the commencement of activity entry in data set [5] was “very rapid commencement of activity”.
On to `CC1=C(C(=O)OCCN(C)Cc2ccccc2)C(c2ccccc2C(F)(F)F)c2c(ccnc2OC(C)C)N1` (single isomer, unassigned; (+)) [(+)-1,4-dihydro-5-isopropoxy-2-methyl-4-(2-trifluoro-methylphenyl)-1,6-naphthyridine-3-carboxylic acid [2-(N-methyl-N-phenylmethylamino)-ethyl] ester], for which the “blood pressure lowering activity” value in data set [1] was “Especially active”.
Take `CC1=C(C(=O)OCCN(C)Cc2ccccc2)C(c2ccccc2C(F)(F)F)c2c(ccnc2OC(C)C)N1` (single isomer, unassigned; (+)) [Fumarate, (+)-1,4-dihydro-5-isopropoxy-2-methyl-4-(2-trifluoromethylphenyl)1,6-naphthyridine-3-carboxylic acid [2-(N-methyl-N-phenyl-methylamino)-ethyl] ester fumarate]: in data set [2] (2 weeks at 45° C. in the dark and 2 weeks at ambient temperature in the light, in words), the “stability under stress conditions” value is on record as “stable”. Besides, the “Solubility in Artificial Gastric Juice” value in data set [3] is recorded as 1.5%. In addition, the results for the “solubility in water” value in data set [3] (in words) and in data set [3] (water) were “considerable lower water solubility” and 0.1%, respectively. Besides, the “blood pressure lowering action” value in data set [4] (setting [6]) is given as 26% ± 1.7; in data set [4] (rats, oral, fumarate compared with hydrochloride, in words) it was “substantially stronger”. The commencement of activity entry in data set [4] (rats, oral administration, fumarate compared with hydrochloride, in words) is “somewhat later”.
